Earlier results on one compound are cited in US20250248977A1, “Tablet Formulation Of Tafamidis Or Pharmaceutically Acceptable Salt Thereof” (Navinta LLC, priority 2024, published 2025).

For `O=C(O)c1ccc2nc(-c3cc(Cl)cc(Cl)c3)oc2c1` [Tafamidis, 2-(3,5-dichlorophenyl)-1,3-benzoxazole-6-carboxylic acid], the aqueous solubility result is “low”.
